“And” between values parts separate entries of the source, which are not always exact repeats. Identical values can stand only once. Like-named read-outs stand apart in the source and are kept apart here.
Experiments:
[1] = Metabolic stability / metabolite detection in human liver microsomes
Description: (§1) Pooled male and female human and rat liver microsomes were obtained commercially from BD Bioscience (San Jose, CA) and Xenotech (Lenexa, KS), respectively. […] Reactions were started by the addition of microsomes and stopped by removing 100 μL aliquots at each time point. […] As positive control, 10μM midazolam was incubated with microsomes for 0, 15, 30 and 60 min in a 37°C water bath and with heat-inactivated microsomes for 0 and 60 min. […] All assays were done in duplicates.
(§2) Reactions were stopped by removing 150 μL aliquots at 0, 5, 15, and 30 min and mixing with acetonitrile containing hexyl nicotinate as internal standard. […] Samples were analyzed in full-scan mode with MS/MS product-ion spectra generated for detected metabolite masses. This was performed using the EMS (enhanced MS scan) mode of the mass spectrometer with IDA (independent data acquisition) experiments to produce MS/MS product-ion spectra for masses detected at sufficient intensities. […] All assays were done in duplicate.

[2] = Metabolic stability / metabolite detection in rat liver microsomes
Description: as §1, §2

[3] = 4R plasma stability in human plasma; assay type: in vitro ADME; conditions: 10 μM 4R, 0-60 min at 37°C
Description: The samples were centrifuged at 18,000 x g for 10 min and the supernatants (100–250 μL) transferred to an HPLC vial containing 900 μl of 60% acetonitrile. The LC-MS/MS analysis was carried out using a high-performance liquid chromatography system consisting of a Shimadzu LC-20AD pump, (Shimadzu Scientific Instruments, Columbia, MA), and a CTC analytics PAL autosampler operating at 10°C (Leap technologies, Carrboro, NC). The MS instrument used was a 4000 QTrap triple quadrupole tandem mass spectrometer (Applied Biosystems/MDS Sciex, Foster City, CA). Electrospray ionization in positive ion mode (ESI+) was used. […] All samples were assayed in duplicate.

[4] = Solubility of 4R in dosing vehicle; assay type: physicochemical; conditions: 12 mg/mL in 10% DMSO and 90% PEG400, room temperature
Description: The solution was sterile filtered using a Millipore Millex-GS 0.22 μm syringe filter. Dose formulations were prepared on Day 1 prior to dose administration and were maintained at room temperature until administration to the animals.

[5] = 4R plasma stability in rat plasma; assay type: in vitro ADME; conditions: 10 μM 4R
Description: The samples were centrifuged at 18,000 x g for 10 min and the supernatants (100–250 μL) transferred to an HPLC vial containing 900 μl of 60% acetonitrile. The LC-MS/MS analysis was carried out using a high-performance liquid chromatography system consisting of a Shimadzu LC-20AD pump, (Shimadzu Scientific Instruments, Columbia, MA), and a CTC analytics PAL autosampler operating at 10°C (Leap technologies, Carrboro, NC). The MS instrument used was a 4000 QTrap triple quadrupole tandem mass spectrometer (Applied Biosystems/MDS Sciex, Foster City, CA). Electrospray ionization in positive ion mode (ESI+) was used. The detection of 4R was performed using the multiple reaction monitoring (MRM) mode. […] All samples were assayed in duplicate.

[6] = Plasma and brain 4R concentrations and pharmacokinetics in male rats; assay type: in vivo, Sprague-Dawley rat; conditions: for Kp at 1.5 h: brain and plasma, 90 min after dose, read-out: Ratio Cmax brain/ plasma; for Kp at 1.5 h / Cmax / Tmax / half-life: 6 mg/kg; for bioavailability: read-out: F (bioavailability)
Description: Twelve-week old male Sprague-Dawley rats weighing 307–373 g at the time of the experiment were used. […] The dosing volume of injection was 0.5 mL/kg for the i.m. and s.c. routes and 5 mL/kg for the i.v. route. […] Animal procedure for housing and care was performed according to the National Research Council (NRC) Guide for the Care and Use of Laboratory Animals and the Animal Welfare Standards incorporated in 9 Code of Federal Regulations Part 3, 1991. The animals had 12 hr light/dark cycles and at least 10 room volumes per hour with no recirculation of air. Purina certified rodent chow and water was provided ad libitum.
Blood samples were collected via a jugular vein catheter at each of the following time points: 2, 5, 10, 20, 45, 60, 90 min and 2, 4, 8 hr. […] The samples were vortexed, centrifuged and the supernatants removed. The supernatants were evaporated to dryness and reconstituted in a solvent mixture containing 50/50/0.1 acetronile/water/formic acid (v/v/v) with 10ng/mL hexyl nicotinate as internal standard. […] Rat brains were collected at 10, 60 or 90 min, and 8 hr post dose and frozen at -70°C. On the day of the analysis, the brains were homogenized in PBS using 4 parts phosphate buffer and 1 part brain (g/g). […] The lower limit of quantitation of the LC-MS/MS was 20.0 ng/ml for plasma and 100 ng/g for brain.
Parameters were calculated for each individual animal. The peak concentration in plasma (Cmax) and the corresponding time of maximum concentration (Tmax) were determined directly from the data. The area under the plasma concentration-time curve (AUC) from time 0–8 hr was calculated using the log/linear trapezoidal (i.v. route) or linear up/log down trapezoidal (i.m. and s.c routes) methods. The dose administered was input to the program as mg/kg, and as a result no additional corrections for individual body weights of the animals were necessary. The following parameters and constants were determined for the three groups: observed maximum plasma concentration (Cmax), time to maximum plasma concentration (Tmax), area under the plasma concentration-time curve to the last time point (AUClast), area under the plasma concentration-time curve extrapolated to infinity (AUCinf), terminal phase elimination half-life (t1/2). Bioavailability (F) after i.m. and s.c. administration was calculated using their respective AUCinf values divided by the AUCinf value of the i.v. group.

[7] = 10 μM, heat-inactivated microsomes, 60 min
[8] = 10 μM, 5 min, metabolite detection experiment
[9] = 10 μM, 15 min, metabolite detection experiment
[10] = 50 μM, 30 min, metabolite detection experiment
[11] = both, human, liver microsomes, pH 7.4
[12] = male, Sprague-Dawley, rat, plasma, im, 6 mg/kg i.m.
[13] = male, Sprague-Dawley, rat, plasma, iv, 6 mg/kg i.v.
[14] = male, Sprague-Dawley, rat, plasma, sc, 6 mg/kg s.c.
[15] = both, rat, liver microsomes, pH 7.4

Cc1ncc2n1-c1ccc(Cl)cc1C(c1ccccc1F)=NC2 [MDZ, Midazolam, reference compound]
percent remaining with heat-inactivated microsomes [1, 7]: 89% | percent remaining with heat-inactivated microsomes [2, 7]: 108%

C/C1=C\[C@H](O)C[C@@](C)(O)/C=C/C(C(C)C)CC/C(C)=C/CC1 (stereo partly drawn) [4R, (1S, 2E, 4R, 6R, 7E, 11E)-cembra-2,7,11-triene-4,6-diol]
mean percent 4R content versus control [3]: 96–103% | appearance of 4R formulation (solubility) [4]: clear colorless solution | mean percent 4R content versus control ([5]; 0-60 min at 37°C): 97–101% | mean percent 4R content ([5]; 60 min at room temperature): 96% | percent 4R remaining [1, 8]: 18% | percent 4R remaining [1, 9]: less than 2% | mean percent 4R remaining [1, 10]: ≤ 7.3% | remaining at 5 min, 1 μM [1, 11]: 8% | remaining at 5 min, 10 μM [1, 11]: 15% | remaining at 0.25 h, 1 μM [1, 11]: 4% | remaining at 0.25 h, 10 μM [1, 11]: < 2% | Brain Cmax ([6]; 6 mg/kg i.m.): 329 ng/g and 329 ± 50 ng/g | time to maximum brain level ([6]; 6 mg/kg i.m.): 90 min | plasma 4R level ([6]; 6 mg/kg i.m., by 8 hr post dose): below the LLOQ | brain Cmax, times higher than s.c. or i.m. ([6]; 6 mg/kg i.v.): 20 times | Brain Cmax ([6]; 6 mg/kg i.v., at 10 min): 6516 ng/g and 6516 ± 1091 ng/g | time to reach the brain ([6]; 6 mg/kg i.v., post dose): ≤ 10 min | Brain Cmax ([6]; 6 mg/kg s.c.): 323 ng/g and 323 ± 90 ng/g | time to maximum brain level ([6]; 6 mg/kg s.c.): 90 min | Brain Cmax ([6]; 6 mg/kg s.c. or i.m.): 300 to 400 ng/mL | maximum mean 4R brain level ([6]; 6 mg/kg s.c., at 90 min): 323 ± 90 | plasma 4R level ([6]; 6 mg/kg s.c., by 8 hr post dose): below the LLOQ | Kp at 1.5 h ([6]; male, Sprague-Dawley, rat, im, 6 mg/kg i.m.): 2.49 | Kp at 1.5 h ([6]; male, Sprague-Dawley, rat, sc, 6 mg/kg s.c.): 2.48 | concentration at 1 hr ([6]; male, Sprague-Dawley, rat, brain, intravenous, 6 mg/kg i.v., at 1 hr post dose): 3000 ± 771 ng/g | AUC(0-inf) ([6]; male, Sprague-Dawley, rat, im, 6 mg/kg i.m., plasma): 395 ± 138 ng·h/mL | AUC(0-inf) ([6]; male, Sprague-Dawley, rat, iv, 6 mg/kg i.v., plasma): 1140 ± 224 ng·h/mL | Cmax [6, 12]: 163 ng/mL | Tmax [6, 12]: ~1 h | half-life ([6]; male, Sprague-Dawley, rat, plasma, im, 6 mg/kg i.m., male rats, read-out: t1/2 (converted)): ~1.5 h | bioavailability ([6]; male, Sprague-Dawley, rat, plasma, intramuscular, 6 mg/kg i.m., AUCinf relative to i.v.): 35% | concentration at 1 hr ([6]; male, Sprague-Dawley, rat, plasma, intramuscular, 6 mg/kg i.m., at 1 hr): 157 ± 86 ng/mL | concentration at 5 min ([6]; male, Sprague-Dawley, rat, plasma, intravenous, 6 mg/kg i.v., at 5 min): 975 ± 104 ng/mL | concentration at 8 hr ([6]; male, Sprague-Dawley, rat, plasma, intravenous, 6 mg/kg i.v., by 8 hr post dose): < 20 ng/mL | Cmax [6, 13]: 1020 ± 49 ng/mL | half-life ([6]; male, Sprague-Dawley, rat, plasma, iv, 6 mg/kg i.v., male rats, read-out: t1/2 (converted)): 0.6 ± 0.1 h | half-life ([6]; male, Sprague-Dawley, rat, plasma, iv, 6 mg/kg i.v., read-out: elimination t1/2): 0.6 h | bioavailability [6, 13]: 100% | Cmax [6, 14]: 138 ± 28 ng/mL | Tmax [6, 14]: 1 h | half-life ([6]; male, Sprague-Dawley, rat, plasma, sc, 6 mg/kg s.c., male rats, read-out: t1/2 (converted)): ~1.5 h | bioavailability ([6]; male, Sprague-Dawley, rat, plasma, subcutaneous, 6 mg/kg s.c., AUCinf relative to i.v.): 41% | concentration at 1 hr ([6]; male, Sprague-Dawley, rat, plasma, subcutaneous, 6 mg/kg s.c., at 1 hr): 134 ± 34 ng/mL | AUC(0-inf) ([6]; male, Sprague-Dawley, rat, sc, 6 mg/kg s.c., plasma): 466 ± 56 ng·h/mL | percent 4R remaining [2, 8]: 34% | percent 4R remaining [2, 9]: less than 2% | mean percent 4R remaining [2, 10]: ≤ 7.3% | remaining at 5 min, 1 μM [2, 15]: 19% | remaining at 5 min, 10 μM [2, 15]: 29% | remaining at 0.25 h, 1 μM [2, 15]: 4% | remaining at 0.25 h, 10 μM [2, 15]: < 2%

Source: publication PMC4374761, “Pharmacokinetics and Metabolism of 4R-Cembranoid” (PLoS ONE, 2015)
